Source: article PMC3041857 (Journal of medicinal chemistry, 2011)
pEC50: −log10 of the molar value.

Columns and labels:
[1] = tested on: PrP^Sc load in ScN2a-cl3 cells; assay type: cell-based, murine
[2] = mouse, in vivo

| Molecule | Antiprion activity (in words) [1] | other results |
| --- | --- | --- |
| COc1ccc(-c2csc(Nc3cccc(C)n3)n2)cc1OC [Compound 4, [4-(3,4-dimethoxyphenyl)-thiazol-2-yl]-(6-methylpyridin-2-yl)-amine] | equipotent to 3 | – |
| CNc1nc(-c2ccc(OC)c(OC)c2)cs1 [Compound 5, 4-(3,4-dimethoxyphenyl)-N-methyl-1,3-thiazol-2-amine] | without significant activity | – |
| Cc1ccc(Nc2nc(-c3cc(-c4ccccc4)no3)cs2)nc1 [Compound 27, (5-Methylpyridin-2-yl)-[4-(3-phenylisoxazol-5-yl)-thiazol-2-yl]-amine] | – | Mean brain concentration in excess of in vitro EC50 ([2]; FVB): ≤ 25 fold; Brain versus plasma concentration [2]: generally exceeded those in plasma |
| Cc1ccc(Nc2nc(C)cs2)nc1 [Compound 29, (5-Methylpyridin-2-yl)-(4-methylthiazol-2-yl)-amine] | inactive | – |
| FC(F)(F)Oc1ccc(-c2csc(Nc3cc4ccccc4cn3)n2)cc1 [Compound 31, Isoquinolin-3-yl-[4-(4-trifluoromethoxyphenyl)-thiazol-2-yl]-amine] | inactive | – |
| Cc1csc(Nc2cc3ccccc3cn2)n1 [Compound 36, Isoquinolin-3-yl-(4-methylthiazol-2-yl)-amine] | inactive | – |
| [4-(3,4-dimethoxyphenyl)-thiazol-2-yl]-pyridin-3-yl-amine [Compound 7] | – | pEC50 ([1]; read-out: ScN2a-cl3 EC50): 5.91 |
